Assays:
BEAS-2B cells = assay: MTT assay in non-tumorigenic bronchial epithelial cells (selectivity); type: cell-based; details: Homo sapiens, 24 h, read-out: BEAS-2B IC50 ± SD
Experimental: NSCLCs H292 and H460 were treated with various concentrations of derivatives of the RT right-half analog for 24 h. […] However, the IC50 values for DH_17, DH_20, DH_23, and DH_26 in H460 cells were greater than 100 μM. TM-(−)-18 was identified as a potent compound in a previous study. The structure of TM-(−)-18 was present in Figure 1A. […] To assess the selectivity of DH_28, DH_30, DH_31, and TM-(−)-18 in lung cancer cells, non-tumorigenic epithelial cell lines derived from human bronchial epithelial cells (BEAS-2B) were treated with DH_28, DH_30, DH_31, and TM-(−)-18 at various concentrations for 24 h.
Figure 2 The effect of RT right-half analogs on cytotoxicity in NSCLC and human normal lung epithelial (BEAS-2B) cell lines and apoptotic cell death in NSCLC cells. (A) NSCLC H292 and H460 cells were treated with derivatives of RT right-half analogs for 24 h and analyzed using MTT assay to assess cytotoxicity. (B) IC50 values for H292 and H460 cell lines were calculated. (C) BEAS-2B cells were treated with DH_28, DH_30, DH_31, and TM-(−)-18 for 24 h. The cytotoxic effects were evaluated using an MTT assay, and the IC50 values for BEAS-2B cells were determined. (D) H292 and H460 cells were seeded and treated with 0–10 μM of DH_28, DH_30, and DH_31 for 24 h. Hoechst 33342 and PI were used to stain the cell nuclei. Images were obtained under a fluorescence microscope. (E) The percentages of cell death were calculated based on the stained images in H292 and H460 cells. […] TEXT PRINTED IN THE PICTURE: (B) DH_17: IC50 ± SD (μM) H292: 20.50 ± 3.69; IC50 ± SD (μM) H460: > 100 | (B) DH_20: IC50 ± SD (μM) H292: 21.46 ± 3.77; IC50 ± SD (μM) H460: > 100 | (B) DH_23: IC50 ± SD (μM) H292: 17.50 ± 3.08; IC50 ± SD (μM) H460: > 100 | (B) DH_26: IC50 ± SD (μM) H292: 7.18 ± 2.39; IC50 ± SD (μM) H460: > 100 | (B) DH_28: IC50 ± SD (μM) H292: 9.56 ± 1.87; IC50 ± SD (μM) H460: 11.48 ± 1.87 | (B) DH_30: IC50 ± SD (μM) H292: 7.80 ± 2.30; IC50 ± SD (μM) H460: 4.51 ± 0.78 | (B) DH_31: IC50 ± SD (μM) H292: 5.54 ± 1.04; IC50 ± SD (μM) H460: 2.90 ± 0.58 | (B) TM-(–)-18: IC50 ± SD (μM) H292: > 100; IC50 ± SD (μM) H460: 7.89 ± 1.27 | (C) DH_28: BEAS-2B IC50 ± SD (μM): 16.46 ± 2.11 | (C) DH_30: BEAS-2B IC50 ± SD (μM): 5.50 ± 1.70 | (C) DH_31: BEAS-2B IC50 ± SD (μM): 6.51 ± 1.40 | (C) TM-(–)-18: BEAS-2B IC50 ± SD (μM): 7.25 ± 1.25 DOUBTS OF THE COPYIST ABOUT THIS PICTURE: Panel C, DH_28, IC50: small print, 16.46 ± 2.11 is the best reading; 6 could be 8 / Panel C, DH_30, IC50: small print, 5.50 ± 1.70 is the best reading; 5 could be 6 / Panel C, DH_31, IC50: small print, 6.51 ± 1.40 is the best reading; 6 could be 8 or 5 / Panel C, TM-(–)-18, IC50: small print, 7.25 ± 1.25 is the best reading

[1] = test system: EMT markers (ZO1, ZEB1, Slug, Snail, N-cadherin, Vimentin) in H460 cells; assay: Immunofluorescence staining of EMT markers; type: cell-based, human
Excerpt: EMT is a biological process that is associated with cancer progression and the spread of cancer cells to other parts of the body. This mechanism facilitates the motility of cancer cells, enhances anoikis resistance, and contributes to poor prognosis due to its high metastatic potential. Given the critical role of EMT in the metastasis processes, we firstly investigated EMT markers. Therefore, to validate that DH_31 inhibits metastasis, H460 cells were selected to elucidate the mechanism because of their enhanced migration and invasion behavior [36]. H460 cells were exposed to the non-toxic concentration range of 0–2.5 µM of DH_31 for 24 h. Subsequently, the evaluation of EMT expression levels was carried out through the application of immunofluorescence assay and Western blotting. We further investigated key hallmarks of EMT, specifically the reduction in the expression levels of epithelial marker (ZO1) and the increase in the expression levels of mesenchymal markers (Slug, Snail, ZEB1, N-cadherin, and Vimentin). […] The expressions of Snail, N-cadherin, and Vimentin were reduced in a concentration-dependent manner. […] Furthermore, the results from the Western blot analysis confirmed the findings from immunofluorescence staining (Figure 3C). […] The protein alterations in response to DH_31 were clarified.
Immunofluorescence staining and confocal microscopy were conducted to visualize the subcellular localization and spatial distribution of specific proteins. H460 cells (1.0 × 10^4 cells per well) were seeded in 96-well plates. Following overnight incubation, the cells were treated with different concentrations of DH_31 (0–2.5 μM) for 24 h at 37 °C. After treatment, the cells were permeabilized with 0.5% Triton-X in PBS for 5 min, followed by the blocking of non-specific proteins with 10% FBS in 0.1% Triton-X PBS for 1 h at room temperature. Subsequently, the cells were exposed to primary antibodies (STAT3, Slug, Snail, Vimentin, N-cadherin, ZO1, and ZEB1) and incubated at 4 °C overnight. The cells were then incubated with Alexa Fluor 488- or 594-conjugated secondary antibodies and Hoechst 33342 for 1 h at room temperature. After washing with PBS, the cells were covered with 50% glycerol. The images were captured by confocal microscopy (Zeiss, Jena, Germany). The fluorescence intensity was measured using ImageJ™ software (Image J 1.52a, Rasband, W., National Institutes of Health, Bethesda, MD, USA).

COc1c(C)cc2c(c1O)[C@@H]1CN(Cc3ccc4ccccc4c3)[C@@H](C#N)[C@H](C2)N1C [DH_31, (1R,4R,5S)-10-hydroxy-9-methoxy-8,11-dimethyl-3-(naphthalen-2-ylmethyl)-1,2,3,4,5,6-hexahydro-1,5-epiminobenzo[d]azocine-4-carbonitrile] was tested, and the IC50 (BEAS-2B cells) was 6.51 ± 1.4 µM, the “ZO1 level (immunofluorescence)” value ([1]; H460, 0–2.5 µM, 24 h) was “slightly increased” and the “Vimentin level (immunofluorescence)” value ([1]; H460, 1 μM (p < 0.01) and 2.5 μM (p < 0.001), 24 h) was “significant reduction”. For the same compound, the “N-cadherin level (immunofluorescence)” value ([1]; H460, 1 μM (p < 0.05) and 2.5 μM (p < 0.001), 24 h) was “significant reduction”, the “Snail level (immunofluorescence)” value ([1]; H460, 1 μM and 2.5 μM, 24 h (p < 0.05)) was “significant reduction” and the “Slug protein level (immunofluorescence)” value ([1]; H460, 2.5 µM, 24 h (p < 0.05)) was “significant decrease”. For the same compound, the “ZEB1 protein level (immunofluorescence)” value ([1]; H460, 2.5 µM, 24 h (p < 0.05)) was “significant decrease”.
